Values of other authors, collected in patent publication US20240000793A1, “OPHTHALMIC COMPOSITION CONTAINING LEVOFLOXACIN AND KETOROLAC, METHOD FOR THE PREPARATION AND USE THEREOF” (NTC S.R.L., priority 2020, published 2024).

Assays:
[1] = versus pH
[2] = recent studies

| SMILES | Solubility profile [1] | Time in the eye at levels above the minimum inhibitory concentration (MIC) [2] |
| --- | --- | --- |
| O=C(c1ccccc1)c1ccc2n1CCC2C(=O)O (centres unmarked) [Ketorolac tromethamine] | pH dependent trend, significantly increasing at pH value>6.0 |  |
| C[C@H]1COc2c(N3CCN(C)CC3)c(F)cc3c(=O)c(C(=O)O)cn1c23 [Levofloxacin] |  | more than six hours |
